# Measurements: US9457037B2, “Combination composition, comprising as active ingredients L-carnitine or propionyl L-carnitine, for the prevention or treatment of chronic venous insufficiency” (SIGMA-TAU INDUSTRIE FARMACEUTICHE RIUNITE S.P.A., priority 2010, dated 2016)
# Tests used:
# [1] = system: recto-anus swelling induced by croton oil; assay: Croton oil-induced hemorrhoid model in rats (swelling of the recto-anus, RAC); assay type: in vivo, rat; conditions: with croton oil (3%) induction, 24 h after induction; oral once per day for five days; 20 mg/kg carnitines, 30 mg/kg flavonoids; male SD rats, n = 5
# Protocol: Male SD rats (6 weeks old, approximately 140 g) were purchased from Harlan Sprague Dawley and allowed to acclimate for 1 week. The rats were maintained in a pathogen-free facility in accordance with the National Research Council of Laboratory Animal care and use guidelines. Each experiment was preformed with age-matched rats 7-8 weeks old. The croton oil-induced hemorrhoid model in rats was performed according to the method published by Nishiki (Nishiki et al. (1988) Folia Pharmacology Japan 92:215-225; Nishiki et al. (1988) Folia Pharmacol. Japan 92:227-240). Briefly, a cotton swab with a diameter of 4 mm soaked with 0.16 mL of inducer (deionized water:pyridine:ethyl ether:6% croton oil/ethyl ether (1:4:5:10) was applied to the rat's anus for 12 seconds. The final concentration of croton oil was 3%. The edema developed linearly until 7-8 hours after application and the severity of the edema was sustained for more than 24 hours. Twenty-four hours later, recto-anus tissue (approx. 10 mm long) was isolated after the rats were euthanized. The weights of rat body and recto-anus were measured. The recto-anus coefficient (RAC) was calculated using the formula: weight of recto-anus (mg)/body weight (g). […]
# Twenty-four hours after hemorrhoid induction with croton oil the RAC of rats was determined.
# [2] = system: isolated aorta from spontaneously hypertensive rats; assay: Relaxant effect on aortic rings precontracted by phenylephrine; design: species or system rat; conditions: 100 micro-molar each component, final concentration in organ chamber; rings precontracted by phenylephrine (1 micromolar); n=8
# Protocol: The objective of this study was to investigate the vasoarelaxation effects of the compositions of the invention using isolated aorta from spontaneously hypertensive rats. The compounds tested were used at a concentration expressed as final concentration in the organ chamber. Male spontaneously hypertensive rats (SHR) 10-12 weeks old, weighing 250-300 g, were housed at 24±2° C. with 60±20% relative humidity, on a 12-h light-dark cycle. Rats were given free access to a diet of standard food and water. All experiments were performed according to the guidelines for the ethical treatment of animals of the European Union. The rats were killed by cervical dislocation and the aortae were rapidly dissected. […] Aortic rings were mounted under a basal tension of 2 g in 20 mL organ baths containing PSS and attached to an isometric transducer (Harvard UF-1); the signal was recorded by a Powerlab data acquisition system (AD-Instruments). […] The relaxant effect of compounds tested was assessed by adding the compound to aortic rings precontracted by phenylephrine (1 micromolar). […] All the results were expressed as a percentage of the maximal contraction of phenylephrine-induced responses. Results are expressed as percentages from the initial precontraction level. The significance was calculated on the actual contraction values means±SE (n=8 aorta preparations per group). […]
SMILES,RAC (recto-anus coefficient: weight of recto-anus (mg)/body weight (g)) [1],% RELAXATION [2] [%]
"COc1ccc([C@@H]2CC(=O)c3c(O)cc(O[C@@H]4O[C@H](CO[C@@H]5O[C@@H](C)[C@H](O)[C@@H](O)[C@H]5O)[C@@H](O)[C@H](O)[C@H]4O)cc3O2)cc1O [Hesperidine, hesperidine]",2.07,9
"CCC(=O)O[C@H](CC(=O)[O-])C[N+](C)(C)C [Propionyl L-carnitine, propionyl L-carnitine]",1.96,28
